Data on three compounds can be found in patent US5210089A, “D-rhamnono-1,5-lactone” (Monsanto Company, priority 1992, dated 1993).

Each structure is given as a SMILES string. “Also recorded” adds a separate entry of the source.

Common to all, as to type: biochemical
For experiment [1], the target named is T1, Lysosomal α-fucosidase (Homo sapiens, UniProt P04066).
T1 construct: human liver extracts; from tissue; host or cells: human liver extracts
T1 sequence (P04066 32-466): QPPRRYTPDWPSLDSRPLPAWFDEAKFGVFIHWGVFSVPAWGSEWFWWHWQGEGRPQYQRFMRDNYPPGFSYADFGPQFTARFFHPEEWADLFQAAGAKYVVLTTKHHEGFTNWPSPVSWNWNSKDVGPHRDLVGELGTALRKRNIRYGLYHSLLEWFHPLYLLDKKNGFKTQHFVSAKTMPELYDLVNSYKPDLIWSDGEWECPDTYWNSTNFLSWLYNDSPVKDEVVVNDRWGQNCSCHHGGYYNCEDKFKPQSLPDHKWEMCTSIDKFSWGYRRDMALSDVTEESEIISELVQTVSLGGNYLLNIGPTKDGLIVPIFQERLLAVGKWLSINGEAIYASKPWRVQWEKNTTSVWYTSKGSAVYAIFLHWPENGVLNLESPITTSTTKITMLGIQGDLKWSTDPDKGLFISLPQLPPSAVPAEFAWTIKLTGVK
As to the kind of experiment: Human liver glycosidase assay, lysosomal α-fucosidase. The conditions noted are these: for inhibition at 1000 µM: 1 mM compound, human liver, read-out: Inhibition (%) at 1 mM, lysosomal α-fucosidase. The method, then:
(§1) Melting points were recorded on a Kofler hot block. Proton nuclear magnetic resonance (δH) spectra were recorded on Varian Gemini 200 (at 200 MHz), Bruker WH 300 (300 MHz), or Bruker AM 500 (500 MHz) spectrometers. Carbon nuclear magnetic resonance (δC) spectra were recorded on a Varian Gemini 200 (50 MHz) or a Bruker 250 (62.9 MHz) spectrometer. Multiplicities were assigned using DEPT sequence on the Gemini and by off resonance decoupling on the Bruker. Spectra run in D2 O were referenced to methanol as an internal standard. All chemical shifts are quoted on the δ-scale. Infrared spectra were recorded on a Perkin-Elmer 297, or on a Perkin-Elmer 781 spectrophotometer. Mass spectra were recorded on VG Micromass 30F, ZAB lF, Masslab 20-250 or Trio-1 GCMS (DB-5 column) spectrometers using desorption chemical ionization (NH3 DCI), electron impact (EI), chemical ionization (NH3 CI) and fast atom bombardment (FAB) techniques, as stated. […] Concentrations were given in g/100 ml. Hydrogenations were run under an atmosphere of hydrogen gas maintained by inflated balloon. Microanalyses were performed by the microanalysis service of the DysonPerrins laboratory, Oxford UK. Thin layer chromatography (t.l.c.) was carried out on aluminum sheets coated with 60F254 silica. Plates were developed using either 5% v/v concentrated sulphuric acid in methanol, 0.2% w/v cerium (IV) sulphate and 5% ammonium molybdate in 2M sulphuric acid and 0.5% ninhydrin in methanol. Flash chromatography was carried out using Sorbsil C60 40/60 silica. Ion-exchange chromatography was performed using Dowex 50W-X8 (H) and Sigma CG 400 (Cl) resins. The resins were washed with 2M hydrochloric acid and 2M sodium hydroxide solution, respectively, and subsequently with distilled water, prior to use. Solvents and commercially available reagents were dried and purified before use according to standard procedures; dichloromethane was refluxed over and distilled from calcium hydride, N,N-dimethylformamide was distilled under reduced pressure from calcium hydride, methanol was distilled from magnesium methoxide, pyridine was distilled from, and stored over, potassium hydroxide and tetrahydrofuran was distilled from a purple solution of sodium benzophenone ketyl immediately before use. Hexane was distilled at 68° C. before use to remove involatile fractions. 2,3-O-Isopropylidene-L-gulono-1,4-lactone (9) [H. Ogura et al., J. Oro. Chem. 37, 72 (1972); G. W. J. Fleet Tetrahedron 45, 319 (1989)]and 2,3-O-isopropylidene-D-gulono-1,4-lactone (15) [L. M. Lerner et al., J. Org. Chem. 33, 1780 (1968)]were prepared from D- and L-Chem. gulonolactones [purchased from the Sigma Chemical Company] as reported previously. See, e.g., Fleet, U.S. Pat. No. 4,861,892. Human liver glycosidases were assayed in the absence and presence [1 mM] of each of the compounds using the appropriate buffered 4-methylumbellifeeryl-glycosides as substrates, as described previously. [B. Winchest et al., Biochem. J. 265, 277 (1990)]. Naringinase was assayed using pnitrophenyl α-L-rhamnoside (1.75 mM) as substrates, according to Romero [C. Romero et al., Anal. Biochem. 149, 566 (1985)].
(§2) The enzymes included human liver glycosidases and naringinase. The latter enzyme is a readily available endo-L-rhamnosidase described by Romero et al., Anal. Biochem. 149, 566 (1985).

In experiment [2] the test system is α-rhamnosidase (naringinase). Nature of the experiment: Naringinase assay with p-nitrophenyl α-L-rhamnoside. To be noted: for Inhibition (%) at 1 mM, α-rhamnosidase (naringinase): 1 mM compound, p-nitrophenyl α-L-rhamnoside 1.75 mM. The method, then:
as §1, §2

For experiment [3], the target named is T2, Lysosomal α-mannosidase (Homo sapiens, UniProt O00754).
T2 sequence (O00754 50-1011): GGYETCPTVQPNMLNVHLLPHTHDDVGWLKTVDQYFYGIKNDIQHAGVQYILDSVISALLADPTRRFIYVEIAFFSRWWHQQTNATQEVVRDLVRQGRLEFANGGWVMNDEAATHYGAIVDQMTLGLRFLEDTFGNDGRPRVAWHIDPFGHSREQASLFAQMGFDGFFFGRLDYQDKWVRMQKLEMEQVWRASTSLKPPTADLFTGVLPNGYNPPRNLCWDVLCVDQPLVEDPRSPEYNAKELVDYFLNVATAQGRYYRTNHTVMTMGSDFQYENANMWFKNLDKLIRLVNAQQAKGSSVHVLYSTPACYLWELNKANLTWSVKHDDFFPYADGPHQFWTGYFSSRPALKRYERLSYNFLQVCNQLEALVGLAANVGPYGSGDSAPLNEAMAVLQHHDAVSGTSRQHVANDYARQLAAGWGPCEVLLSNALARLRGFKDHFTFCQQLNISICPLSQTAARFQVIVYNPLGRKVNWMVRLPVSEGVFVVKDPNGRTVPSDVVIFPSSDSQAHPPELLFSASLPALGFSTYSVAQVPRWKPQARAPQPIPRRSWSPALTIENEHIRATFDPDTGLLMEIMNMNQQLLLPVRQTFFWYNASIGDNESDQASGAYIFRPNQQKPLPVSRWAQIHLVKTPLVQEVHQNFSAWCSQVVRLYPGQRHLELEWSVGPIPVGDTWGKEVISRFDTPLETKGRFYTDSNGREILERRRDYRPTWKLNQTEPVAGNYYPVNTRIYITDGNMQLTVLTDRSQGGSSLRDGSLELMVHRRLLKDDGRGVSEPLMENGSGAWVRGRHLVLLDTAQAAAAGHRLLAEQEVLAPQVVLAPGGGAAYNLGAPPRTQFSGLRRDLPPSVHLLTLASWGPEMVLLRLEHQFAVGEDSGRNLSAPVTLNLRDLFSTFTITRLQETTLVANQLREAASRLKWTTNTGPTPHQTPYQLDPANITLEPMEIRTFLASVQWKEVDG
As to the kind of experiment: Human liver glycosidase assay, lysosomal α-mannosidase. On the set-up: human liver extracts; from tissue; host or cells: human liver extracts. The conditions noted are these: for inhibition at 1000 µM: 1 mM compound, 4-methylumbelliferyl-glycoside substrate; for inhibition at 1000 µM / IC50: human liver; for IC50: read-out: I50, lysosomal α-mannosidase. The protocol:
as §1, §2

With `C[C@H]1NC(=O)[C@@H](O)[C@@H](O)[C@@H]1O` [D-Rhamno-1,5-lactam (6), 6-Deoxy-D-mannono-δ-lactam], in experiment [1], the “Inhibition of α-fucosidase (in words)” value is listed as “does not show any significant inhibition” and the inhibition (usually the relative decrease from the control value, in per cent) at 1000 µM was determined as 0%. Further, in experiment [2], the “Inhibition of α-rhamnosidase (in words)” value is given as “not of α-rhamnosidase” and the “Inhibition (%) at 1 mM, α-rhamnosidase (naringinase)” value (“Inhibition (%) at 1 mM” below) is reported as 3%. For the same compound, in experiment [3], the inhibition at 1000 µM stood at 86% and the IC50 is 100 µM. The “Inhibition of α-mannosidase (in words)” value in experiment [3] (listed as D-rhamnono-1,5-lactone) is “inhibitor of α- and β-mannosidases; also recorded: better inhibitor of α-mannosidase than deoxymannojirimycin (1)”.
Take `C[C@@H]1NC(=O)[C@H](O)[C@H](O)[C@H]1O` [L-Rhamno-1,5-lactam (8), 6-Deoxy-L-mannono-δ-lactam]: the inhibition at 1000 µM in experiment [1] and in experiment [3] was 0% in each case. For the same compound, the “Inhibition of α-rhamnosidase (in words)” value in experiment [2] is recorded as “no inhibitory activity”. The “Inhibition (%) at 1 mM” value in experiment [2] is 0%.
Turning to `O=C1N[C@H](CO)[C@@H](O)[C@H](O)[C@@H]1O` [Mannono-1,5-lactam (2), D-mannonolactam], the inhibition at 1000 µM in experiment [1] came out at 0%; in experiment [3], 94%. In addition, the “Inhibition (%) at 1 mM” value in experiment [2] amounted to 12%. Moreover, in experiment [3], the IC50 came out at 50 µM.
